The assay deals with T1, human recombinant farnesyl-protein transferase (Homo sapiens, UniProt P49354+P49356).
T1 construct: made in house; host or cells: Escherichia coli
The assay is described as follows: In vitro inhibition of ras farnesyl transferase. In kind it is biochemical. The note with it: 50 nM 3H-FPP, 0.1 μM ras-CVIM, 2 μg human recombinant FPTase, pH 7.5, 30 minutes at 31° C.; read-out: LC50 (nM) (IC50: concentration of the test compound which gives 50% inhibition of FPTase). Here is the method:
In vitro inhibition of ras farnesyl transferase
Human FPTase was expressed in Escherichia coli and then the recombinant protein was purified as described by Omer, et al., Biochemistry 32, 5167 (1993). The assay was performed in a volume of 100 μl containing 100 mM N-(2-hydroxy ethyl) piperazine-N'-(2-ethane sulfonic acid) (HEPES), pH 7.5, 5 mM MgCl2, 5 mM dithiothreitol (DTT), 10 μM ZnCl2, 0.1% (w/v) polyethylene glycol 20,000, 50 nM 3H!-Farnesyl Pyrophosphate ( 3H!-FPP, […], NEN-DuPont), 0.1 μM ras-CVIM and 2 μg of human recombinant farnesyl-protein transferase. The assay was run in the presence of the compound(s) for 30 minutes at 31° C. and then quenched by placing the tubes in an ice bath for 5 minutes. Trichloracetic acid (TCA, 0.1 ml of 30% (v/v) in ethanol followed by 50 μl of 0.25% (w/v) Bovine Serum Albumin in water was added to the tubes, vortexed for 5 minutes then placed in a 37° C. water bath for 30 minutes to facilitate the hydrolysis of the unused farnesyl pyrophosphate. The precipitate was collected on a Packard double thickness filtermat, using a Tomtec Mach II Cell Harvester and washed with 8 ml of 100% Ethanol. The filtermats were dried in a microwave oven and counted in a LKB Betaplate counter. The compounds were dissolved in dimethyl sulfoxide and were diluted 20-fold into the assay.
Inhibition of RAS farnesylation by compounds of this invention* […]

Results on one compound are retold here after US5510371A, “Inhibitors of farnesyl-protein transferase” (Merck & Co., Inc., priority 1994, dated 1996).

T1 sequence (P49356 whole entry, one chain of several): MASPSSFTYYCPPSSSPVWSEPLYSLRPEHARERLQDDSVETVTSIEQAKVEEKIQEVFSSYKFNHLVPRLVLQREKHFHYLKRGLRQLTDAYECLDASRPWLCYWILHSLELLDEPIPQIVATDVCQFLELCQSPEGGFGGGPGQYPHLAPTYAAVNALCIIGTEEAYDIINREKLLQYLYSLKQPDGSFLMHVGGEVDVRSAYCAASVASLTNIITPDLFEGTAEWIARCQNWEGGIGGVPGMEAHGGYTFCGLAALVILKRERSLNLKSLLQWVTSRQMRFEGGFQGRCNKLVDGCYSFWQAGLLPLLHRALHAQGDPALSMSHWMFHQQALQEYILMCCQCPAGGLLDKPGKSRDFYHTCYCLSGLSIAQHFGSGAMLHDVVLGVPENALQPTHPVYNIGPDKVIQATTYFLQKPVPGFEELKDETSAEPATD

With `CCC(CC(C)C(=O)O)C(=O)CCC1=CC(C)CC(C)=CC(C)C(O)C(C)CCC(CCCCC=CC(C)CCC(C)OC(=O)CC(CC(=O)O)C(=O)O)OC(=O)CC(C(=O)O)CC(=O)OC1` (stereo not shown) [Compound 1, 1,2,3-propanetricarboxylic acid 1-10-4-carboxy 19-(6-carboxy-4-ethyl-3-oxoheptyl)-12-hydroxy-11,13,15,17-tetramethyl-2,6-dioxo-1,7-dioxacycloeiocosa-14,18-dien-8-yl!-1,4-dimethyl-5-decenyl! ester], the IC50 was found to be 230 nM.
